Experimental data published in ChEMBL document CHEMBL3885881, “DrugMatrix”.

Species on record: Rattus norvegicus
Assay: DrugMatrix - Regimen: Daily Repeat
Format: toxicity, organism-based, Sprague-Dawley
Parameters: regimen Daily Repeat, gender Male, age 6-8 weeks
Details: in vivo, po, route oral GAVAGE, vehicle 100 % WATER; for ABSOLUTE BASOPHIL / ABSOLUTE EOSINOPHIL / ABSOLUTE LYMPHOCYTE / ABSOLUTE MONOCYTE / ABSOLUTE SEGMENTED NEUTROPHIL / BASOPHIL / EOSINOPHIL / ERYTHROCYTE COUNT / HEMATOCRIT / HEMOGLOBIN / LEUKOCYTE COUNT / LYMPHOCYTE / MEAN CORPUSCULAR HEMOGLOBIN / MEAN CORPUSCULAR HEMOGLOBIN CONCENTRATION / MEAN CORPUSCULAR VOLUME / MONOCYTE / NEUTROPHIL / NUCLEATED RED BLOOD CELLS / PLATELET COUNT: tissue Blood; for ALANINE AMINOTRANSFERASE / ALBUMIN / ALKALINE PHOSPHATASE / ASPARTATE AMINOTRANSFERASE / BLOOD UREA NITROGEN / CARBON DIOXIDE / CHLORIDE / CHOLESTEROL / CREATINE PHOSPHOKINASE / CREATININE / GLUCOSE / LACTATE DEHYDROGENASE / LIPASE / PHOSPHORUS / POTASSIUM / SODIUM / TOTAL BILIRUBIN / TOTAL PROTEIN / URIC ACID: tissue Plasma
[1] = 48 mg/kg, 72 h, dose level High, time 3 day
[2] = 48 mg/kg, 120 h, dose level High, time 5 day
[3] = […], 72 h, dose 3.2 mg/Kg, dose level Low, time 3 day
[4] = […], 120 h, dose 3.2 mg/Kg, dose level Low, time 5 day

`O=C(c1ccccc1)c1ccc2n1CCC2C(=O)O` (configuration not stated) [KETOROLAC] was tested, and the “ABSOLUTE BASOPHIL” value [1] was 0 CELLS/uL, the “ABSOLUTE EOSINOPHIL” value [1] was 209.67 CELLS/uL and the “ABSOLUTE LYMPHOCYTE” value [1] was 27063 CELLS/uL. For the same molecule, the “ABSOLUTE MONOCYTE” value [1] was 1382.33 CELLS/uL, the “ABSOLUTE SEGMENTED NEUTROPHIL” value [1] was 3145 CELLS/uL and the BASOPHIL [1] was 0%. The EOSINOPHIL [1] was 0.67%, the “ERYTHROCYTE COUNT” value [1] was 3.97 x10E6/uL and the HEMATOCRIT [1] was 23.77%. The HEMOGLOBIN [1] was 9.13 G/DL, the “LEUKOCYTE COUNT” value [1] was 31.8 x10E3/uL and the LYMPHOCYTE [1] was 85%. For the same molecule, the “MEAN CORPUSCULAR HEMOGLOBIN” value [1] was 23.5 pg, the “MEAN CORPUSCULAR HEMOGLOBIN CONCENTRATION” value [1] was 38.6 G/DL and the “MEAN CORPUSCULAR VOLUME” value [1] was 60.83 fL. The MONOCYTE [1] was 4.33%, the NEUTROPHIL [1] was 10% and the “NUCLEATED RED BLOOD CELLS” value [1] was 0.33 /100WBC. For the same molecule, the “PLATELET COUNT” value [1] was 1452.33 x10E3/uL, the “ALANINE AMINOTRANSFERASE” value [1] was 19.67 u/L and the ALBUMIN [1] was 3.1 G/DL. For the same molecule, the “ALKALINE PHOSPHATASE” value [1] was 170.33 u/L, the “ASPARTATE AMINOTRANSFERASE” value [1] was 55.33 u/L and the “BLOOD UREA NITROGEN” value [1] was 14 mg/dL. For the same molecule, the “CARBON DIOXIDE” value [1] was 24 mmol/L, the CHLORIDE [1] was 105.33 MEQ/L and the CHOLESTEROL [1] was 64.67 mg/dL. The “CREATINE PHOSPHOKINASE” value [1] was 293 u/L, the CREATININE [1] was 0.19 mg/dL and the GLUCOSE [1] was 170 mg/dL. For the same molecule, the “LACTATE DEHYDROGENASE” value [1] was 145.33 u/L, the LIPASE [1] was 7.67 u/L and the PHOSPHORUS [1] was 12.67 mg/dL. The POTASSIUM [1] was 7.45 MEQ/L, the SODIUM [1] was 144.47 MEQ/L and the “TOTAL BILIRUBIN” value [1] was 0.13 mg/dL. The “TOTAL PROTEIN” value [1] was 5.17 G/DL, the “URIC ACID” value [1] was 3 mg/dL and the “ABSOLUTE BASOPHIL” value [2] was 0 CELLS/uL. For the same molecule, the “ABSOLUTE EOSINOPHIL” value [2] was 0 CELLS/uL, the “ABSOLUTE LYMPHOCYTE” value [2] was 14525.25 CELLS/uL and the “ABSOLUTE MONOCYTE” value [2] was 548.5 CELLS/uL. For the same molecule, the “ABSOLUTE SEGMENTED NEUTROPHIL” value [2] was 4876.25 CELLS/uL, the BASOPHIL [2] was 0% and the EOSINOPHIL [2] was 0%. For the same molecule, the “ERYTHROCYTE COUNT” value [2] was 4.52 x10E6/uL, the HEMATOCRIT [2] was 27.15% and the HEMOGLOBIN [2] was 10.4 G/DL. The “LEUKOCYTE COUNT” value [2] was 19.95 x10E3/uL, the LYMPHOCYTE [2] was 76.25% and the “MEAN CORPUSCULAR HEMOGLOBIN” value [2] was 23.03 pg. For the same molecule, the “MEAN CORPUSCULAR HEMOGLOBIN CONCENTRATION” value [2] was 38.32 G/DL, the “MEAN CORPUSCULAR VOLUME” value [2] was 60.12 fL and the MONOCYTE [2] was 3.25%. For the same molecule, the NEUTROPHIL [2] was 20.5%, the “NUCLEATED RED BLOOD CELLS” value [2] was 0.5 /100WBC and the “PLATELET COUNT” value [2] was 2011.5 x10E3/uL. The “ALANINE AMINOTRANSFERASE” value [2] was 73.25 u/L, the ALBUMIN [2] was 2.58 G/DL and the “ALKALINE PHOSPHATASE” value [2] was 411.75 u/L. The “ASPARTATE AMINOTRANSFERASE” value [2] was 294 u/L, the “BLOOD UREA NITROGEN” value [2] was 25.5 mg/dL and the “CARBON DIOXIDE” value [2] was 25.25 mmol/L. For the same molecule, the CHLORIDE [2] was 102 MEQ/L, the CHOLESTEROL [2] was 70.5 mg/dL and the “CREATINE PHOSPHOKINASE” value [2] was 1478 u/L. For the same molecule, the CREATININE [2] was 0.18 mg/dL, the GLUCOSE [2] was 115.25 mg/dL and the “LACTATE DEHYDROGENASE” value [2] was 533.75 u/L. For the same molecule, the LIPASE [2] was 13.5 u/L, the PHOSPHORUS [2] was 13.42 mg/dL and the POTASSIUM [2] was 7.39 MEQ/L. For the same molecule, the SODIUM [2] was 142.23 MEQ/L, the “TOTAL BILIRUBIN” value [2] was 0.18 mg/dL and the “TOTAL PROTEIN” value [2] was 5.4 G/DL. For the same molecule, the “URIC ACID” value [2] was 2.45 mg/dL, the “ABSOLUTE BASOPHIL” value [3] was 0 CELLS/uL and the “ABSOLUTE EOSINOPHIL” value [3] was 59.33 CELLS/uL. For the same molecule, the “ABSOLUTE LYMPHOCYTE” value [3] was 7885.33 CELLS/uL, the “ABSOLUTE MONOCYTE” value [3] was 273 CELLS/uL and the “ABSOLUTE SEGMENTED NEUTROPHIL” value [3] was 682.33 CELLS/uL. The BASOPHIL [3] was 0%, the EOSINOPHIL [3] was 0.67% and the “ERYTHROCYTE COUNT” value [3] was 5.54 x10E6/uL. The HEMATOCRIT [3] was 36.1%, the HEMOGLOBIN [3] was 13.73 G/DL and the “LEUKOCYTE COUNT” value [3] was 8.9 x10E3/uL. For the same molecule, the LYMPHOCYTE [3] was 88.67%, the “MEAN CORPUSCULAR HEMOGLOBIN” value [3] was 24.83 pg and the “MEAN CORPUSCULAR HEMOGLOBIN CONCENTRATION” value [3] was 38.07 G/DL. For the same molecule, the “MEAN CORPUSCULAR VOLUME” value [3] was 65.27 fL, the MONOCYTE [3] was 3% and the NEUTROPHIL [3] was 7.67%. For the same molecule, the “NUCLEATED RED BLOOD CELLS” value [3] was 0 /100WBC, the “PLATELET COUNT” value [3] was 1257 x10E3/uL and the “ALANINE AMINOTRANSFERASE” value [3] was 47.67 u/L. The ALBUMIN [3] was 4.6 G/DL, the “ALKALINE PHOSPHATASE” value [3] was 439.67 u/L and the “ASPARTATE AMINOTRANSFERASE” value [3] was 96 u/L. For the same molecule, the “BLOOD UREA NITROGEN” value [3] was 11.33 mg/dL, the “CARBON DIOXIDE” value [3] was 32.33 mmol/L and the CHLORIDE [3] was 102.5 MEQ/L. For the same molecule, the CHOLESTEROL [3] was 64.67 mg/dL, the “CREATINE PHOSPHOKINASE” value [3] was 218 u/L and the CREATININE [3] was 0.17 mg/dL. The GLUCOSE [3] was 144.33 mg/dL, the “LACTATE DEHYDROGENASE” value [3] was 103.33 u/L and the LIPASE [3] was 9.33 u/L. The PHOSPHORUS [3] was 11.4 mg/dL, the POTASSIUM [3] was 6 MEQ/L and the SODIUM [3] was 148.9 MEQ/L. For the same molecule, the “TOTAL BILIRUBIN” value [3] was 0.0667 mg/dL, the “TOTAL PROTEIN” value [3] was 6.63 G/DL and the “URIC ACID” value [3] was 0.43 mg/dL. The “ABSOLUTE BASOPHIL” value [4] was 0 CELLS/uL, the “ABSOLUTE EOSINOPHIL” value [4] was 0 CELLS/uL and the “ABSOLUTE LYMPHOCYTE” value [4] was 9946 CELLS/uL. For the same molecule, the “ABSOLUTE MONOCYTE” value [4] was 214 CELLS/uL, the “ABSOLUTE SEGMENTED NEUTROPHIL” value [4] was 540 CELLS/uL and the BASOPHIL [4] was 0%. The EOSINOPHIL [4] was 0%, the “ERYTHROCYTE COUNT” value [4] was 6.18 x10E6/uL and the HEMATOCRIT [4] was 38.5%. The HEMOGLOBIN [4] was 14.07 G/DL, the “LEUKOCYTE COUNT” value [4] was 10.7 x10E3/uL and the LYMPHOCYTE [4] was 93%. For the same molecule, the “MEAN CORPUSCULAR HEMOGLOBIN” value [4] was 22.77 pg, the “MEAN CORPUSCULAR HEMOGLOBIN CONCENTRATION” value [4] was 36.63 G/DL and the “MEAN CORPUSCULAR VOLUME” value [4] was 62.23 fL. The MONOCYTE [4] was 2%, the NEUTROPHIL [4] was 5% and the “NUCLEATED RED BLOOD CELLS” value [4] was 0 /100WBC. The “PLATELET COUNT” value [4] was 1155 x10E3/uL, the “ALANINE AMINOTRANSFERASE” value [4] was 40 u/L and the ALBUMIN [4] was 4.43 G/DL. For the same molecule, the “ALKALINE PHOSPHATASE” value [4] was 422.33 u/L, the “ASPARTATE AMINOTRANSFERASE” value [4] was 70.67 u/L and the “BLOOD UREA NITROGEN” value [4] was 14.67 mg/dL. The “CARBON DIOXIDE” value [4] was 33.67 mmol/L, the CHLORIDE [4] was 102 MEQ/L and the CHOLESTEROL [4] was 81 mg/dL. For the same molecule, the “CREATINE PHOSPHOKINASE” value [4] was 512.33 u/L, the CREATININE [4] was 0.16 mg/dL and the GLUCOSE [4] was 169.33 mg/dL. For the same molecule, the “LACTATE DEHYDROGENASE” value [4] was 125 u/L, the LIPASE [4] was 9 u/L and the PHOSPHORUS [4] was 13.57 mg/dL. The POTASSIUM [4] was 6.98 MEQ/L, the SODIUM [4] was 147.2 MEQ/L and the “TOTAL BILIRUBIN” value [4] was 0.2 mg/dL. For the same molecule, the “TOTAL PROTEIN” value [4] was 6.37 G/DL and the “URIC ACID” value [4] was 1.83 mg/dL.
